Values of other authors, collected in patent US20050032867A1, “Pharmaceutical composition comprising a 5ht1 receptor agonist” (priority 2001, published 2005).

For `CNS(=O)(=O)Cc1ccc2[nH]cc(CCN(C)C)c2c1` [sumatriptan], the “effect of food on the overall bioavailability” value (administered orally) is listed as “no significant effect” and the “delay of Tmax (time to maximum observed serum concentrations) by food” value (administered orally with food) is listed as “about 0.5 hour”.
